Reference: US11046731B2, “Zinc-binder based EBNA1-specific compounds” (priority 2018, dated 2021)
Numbered stars: 1 amine (or outer) side, 2 acyl side, 3 side chain; on linkers, the order of the positions; unused ones are H or OH. Square brackets hold non-standard residues; d marks the D form. Peptide text beside a SMILES is read from it. * marks the point of attachment. X2 = O=C(c1ccc(/C=C/c2ccc(N[*:1])cc2)cc1)[*:2]; X1 = O=C(CN(Cc1ccccn1)Cc1ccccn1)*

Key:
[1] = tested on: EBV-positive C666-1 xenografts; test: C666-1 nude mice xenograft, intratumoral injection; type: in vivo, BALB/c nude mice; details: 18 days
BZLF1 (Zta) and BMRF1 = test: IHC of EBV lytic proteins in C666-1-derived tumor tissues; type: in vivo, Epstein-Barr virus
[2] = tested on: Rta, BMRF1 and gp350/220 in EBV-positive NPC43 cells; test: Western blot of EBV lytic proteins; type: cell-based, Epstein-Barr virus; details: 10 μM, 7 days
[3] = tested on: EBV-positive NPC43, C666-1, Raji cells; details: 1-20 μM, 5 days
[4] = tested on: EBV-negative HeLa xenografts; details: 4 μg/injection every three days, 19 days

CSCC[C@H](NC(=O)[C@H](Cc1ccccc1)NC(=O)[C@H](Cc1ccc(O)cc1)NC(=O)c1ccc(/C=C/c2ccc(NC(=O)CN(Cc3ccccn3)Cc3ccccn3)cc2)cc1)C(=O)N[C@H](C(=O)N[C@@H](Cc1ccccc1)C(=O)O)C(C)C [ZRL5P2] (X1-[X2]YFMVF-OH)
effect on tumor growth ([1]; 4 μg/injection intra-tumoral twice weekly): did not significantly affect tumor growth
changes in body or organ weights compared to the vehicle control ([1]; 4 μg/injection): did not cause significant changes
tumor areas positive for BMRF1 (IHC) (BZLF1 (Zta) and BMRF1): 1.15%
protein levels of Rta and BMRF1 [2]: much weaker than that of ZRL5P4
cytotoxicity / growth inhibition in EBV-positive cells [3]: least efficient
changes in body weights compared to the control [4]: did not cause any significant changes
